Literature values as cited in patent US10654893B2, “Self-assembling peptide compositions” (3-D MATRIX, LTD., priority 2014, dated 2020).

Conditions: cited from earlier work

Row | SMILES | pKa
1 | N[C@@H](CCC(=O)O)C(=O)O [glutamic acid] | 4.15
2 | N[C@@H](CC(=O)O)C(=O)O [aspartic acid] | 3.71
